Results on one compound are retold here after patent US11718813B2, “2-in-1 sanitizing and rinse aid compositions employing amine based surfactants in machine warewashing” (ECOLAB USA INC., priority 2020, dated 2023).

A value given as a limit tells only on which side of the number the result lay.

One data set concerns Staphylococcus aureus. The data set is described as follows: AOAC Official Method 960.09 Germicidal and Detergent Sanitizing Action of Disinfectants. To be noted: pH 5, about 12.5 to about 400 ppm tested, 5-log reached only at the highest concentration tested. The class given is cell-based. The text has this:
(§1) As used herein, the term “sanitizer” refers to an agent that reduces the number of bacterial contaminants to safe levels as judged by public health requirements. […] These reductions can be evaluated using a procedure set out in Germicidal and Detergent Sanitizing Action of Disinfectants, Official Methods of Analysis of the Association of Official Analytical Chemists, paragraph 960.09 and applicable sections, 15th Edition, 1990 (EPA Guideline 91-2). According to this reference a sanitizer should provide a 99.999% reduction (5-log order reduction) within 30 seconds at room temperature, 25±2° C., against several test organisms. […] Differentiation of antimicrobial “-cidal” or “-static” activity, the definitions which describe the degree of efficacy, and the official laboratory protocols for measuring this efficacy are considerations for understanding the relevance of antimicrobial agents and compositions. Antimicrobial compositions can affect two kinds of microbial cell damage. The first is a lethal, irreversible action resulting in complete microbial cell destruction or incapacitation. The second type of cell damage is reversible, such that if the organism is rendered free of the agent, it can again multiply. The former is termed microbiocidal and the later, microbiostatic. A sanitizer and a disinfectant are, by definition, agents which provide antimicrobial or microbiocidal activity.
(§2) In order to determine the efficacy of the amine-based surfactants in various environments as determined by different pH values, the surfactants were tested for antimicrobial efficacy on E. coli and Staphylococcus aureus.

The next data set relates to E. coli. The description is as above. It counts as cell-based.
Description: as §1, §2

The nature of data set [1]: Surface tension / critical micelle concentration on a tensiometer. It counts as physicochemical. Particulars: 0.001 to 1 wt % in DI water, FIG. 1. The protocol:
All samples were run on a tensiometer with the concentration of the amine surfactants ranging from 0.001 to 1 wt % in up to 50 mL DI water.

Another data set in a line: Glewwe foam test. It counts as physicochemical. Particulars: foam height; 120 F; pH 8.5. The protocol: The ability of a defoaming agent to control the foaming profile of the surfactant was also tested.
The foam height never surpassed the maximum height of 3 inches allowed by the Glewwe test for a passing test and generally had no foam or a low froth present. Even at a 3:1 ratio of surfactant to defoamer, the fatty alcohol alkoxylate was sufficient to keep the foam low for machine ware washing. At lower ratios, such as 2:1 or 1:1 surfactant to defoamer, the level of foam was even better maintained at a low to nonexistent amount.

With `CCCCCCCCCCCCN(CCCN)CCCN` [bis(3-aminopropyl)dodecylamine], the log reduction in the data set on Staphylococcus aureus is less than 5 log; with E. coli (pH 5, about 12.5 to about 400 ppm tested, 5-log reached only at the highest concentration tested), less than 5 log. The “concentration to achieve a 5-log reduction” value in the data set with E. coli (pH 7) was determined as 50 ppm. The results for the surface tension result in data set [1] (pH 5), in data set [1] (pH 7) and in data set [1] (pH 9) were “about 35 mN/m”, “about 35 mN/m” and “about 32 mN/m”, respectively. Besides, the “Surfactant Foam Profile 0 min” value in “Glewwe foam test” was found to be 9. The “Surfactant Foam Profile 15 sec” value in “Glewwe foam test” amounted to 9. Besides, the “Surfactant Foam Profile 1 min” value in the data set “Glewwe foam test” is reported as 8.
